# Literature values in patent publication US6184217A (Cephalon, Inc., priority 1997, dated 2001).
# Legend:
# [1] = tested on: protein kinase C (PKC); conditions: cited from earlier work
# [2] = tested on: smooth muscle contraction; conditions: cited from earlier work
# [3] = tested on: elongation of neurazone; conditions: cited from earlier work
# [4] = tested on: histamine release; conditions: cited from earlier work
# [5] = tested on: smooth muscle MLCK; conditions: cited from earlier work
# [6] = tested on: inflammation; conditions: cited from earlier work
# [7] = tested on: IL-2 production; conditions: cited from earlier work
# [8] = tested on: lethality resulting from endotoxin administration; conditions: in vivo; cited from earlier work
smiles,measurement,setting,value
COC(=O)C1(O)CC2OC1(C)n1c3ccccc3c3c4c(c5c6ccccc6n2c5c31)C(=O)NC4 (centres unmarked) [Compound K-252a],inhibition of protein kinase C,[1],strongly inhibits protein kinase C (PKC)
same,inhibiting smooth muscle contraction,[2],inhibiting smooth muscle contraction
same,inhibiting elongation of neurazone,[3],inhibiting elongation of neurazone
same,inhibiting histamine release,[4],inhibiting histamine release
same,inhibiting smooth muscle MLCK,[5],inhibiting smooth muscle MLCK
same,anti-inflammatory action,[6],anti-inflammatory action
same,inhibiting IL-2 production,[7],inhibiting IL-2 production
same,lethality resulting from endotoxin administration,[8],reduces the lethality resulting from endotoxin administration
